Among the data in a melting point compilation (Tetko et al.; mined from patent text by program, amines drawn as free bases though some values may be those of a salt) are melting point values, retold here.

One may read the melting point as the temperature, or range, at which the solid turns liquid.

For `COc1ccc(C(=O)c2cc(OC)ccc2O)cc1`, the melting point was 70 to 72 °C.

Take `CC(C)(C)OC(=O)N1CCN(Cc2ccc3c(c2)-c2[nH]nc(-c4ccsc4)c2C3)CC1`: the melting point was 218 to 220 °C.

In the case of `O=C(Nc1nc(=O)n(S(=O)(=O)c2ccc(Cl)cc2)cc1F)c1ccc(Cl)cc1`, the melting point was in the range of 169 to 172 °C.

Regarding `CCN(C)c1ccc2c(c1)CNC2=O`, the melting point lay within 127 to 129 °C.

In turn, `CN(C(=O)On1nc(Br)c(Br)c1Br)c1ccccc1` registered a melting point of 115 to 119 °C.

As for `CC(Cl)(Cl)C(NC(=O)c1cccc(Cl)c1)NC(=NC#N)Nc1cccnc1` (centres undefined), the melting point was 142 to 143 °C.

Compound `CC(C)(C)C(=O)Nc1nc(O)c2c(n1)NCC(CCC1CCC(C(=O)O)CC1)C2` (centres undefined) came in with a melting point of 218 to 234 °C.

As to `Cc1c(CCc2ccccc2)c(=O)oc2cc(OCc3nnn[nH]3)cc(OCc3nnn[nH]3)c12`, the melting point was in the range of 248 to 250 °C.

With `C[Si](C)(C)C#Cc1ccc(Br)cc1`, the melting point came out at 62 °C.

`CNc1ccc(-c2nc(C)c(-c3cccnc3)[nH]2)c(OC)c1` displayed a melting point of 54 to 56 °C.

The compound `COC(=O)/C=C/c1cc(-c2ccc(C)cc2)cs1` registered a melting point of 116 to 118 °C.

`Cn1c(C(F)(F)F)cc(=O)n(-c2c(F)cc(Br)c(O)c2N)c1=O` returned a melting point of 98 to 100 °C.

For `CC(=O)Nc1c(I)c(C(=O)O)c(I)c(C(=O)NCC(=O)O)c1I`, the melting point was in the range of 201 to 202 °C.

As for `Cc1cc(-c2cc(O)c(SCc3ccccc3)c(=O)o2)cc(C)c1O`, the melting point was in the range of 174 to 176 °C.

`Cc1cc(Cc2cnc(NCCSCc3ncccc3Br)[nH]c2=O)cnc1C` returned a melting point of 105 to 107 °C.

Regarding `CNC(=S)N(C)Cc1cccnc1`, the melting point fell in the range of 86 to 87 °C.

In the case of `C(=C\c1cc(/C=C/c2ccccc2OCc2ccccn2)[nH]n1)/c1ccc2[nH]ccc2c1`, the melting point lay within 220 to 223 °C.

In turn, `FC(F)(F)c1cc(Nc2nnc(CCCc3cccnc3)c3ccccc23)ccc1Cl` registered a melting point of 142 °C.

For the compound `CCCCc1nc2cc(CO)ccc2n1Cc1ccc(-c2ccccc2C(=O)O)cc1`, the melting point is 130 to 143 °C.

Regarding `O=C(O)[C@@H]1O[C@@H](c2ccccc2)N(NS(=O)(=O)c2ccc([N+](=O)[O-])cc2)[C@H]1c1ccccc1`, the melting point lay in the range of 61 to 65 °C.

`CCCc1nn(C)c2c(=O)[nH]c(Cc3ccc(N(CC)CC)cc3)nc12` registered a melting point of 201 to 203 °C.

Take `O=c1c2c(cnn1-c1ccccc1)C(Cc1ccccc1)NCCS2` (centres undefined): the melting point was 174 to 175 °C.

`Cc1nc(-c2cccnc2)sc1-c1ccnc(Nc2ccc(N3CCCC3)cc2)n1` yielded a melting point of 212 to 214 °C.

As for `CCOC(=O)c1cc(-n2c(=O)c3c(n(C)c2=O)CSC3)ccc1Cl`, the melting point is 203 to 206 °C.

As to `Oc1ccc(-c2nnc(CSCCOc3ccccc3)s2)cc1`, the melting point lay within 127 to 128 °C.

The compound `CC12CC(N3CCC(O)CC3)C(O)CC1CCC1C2CCC2(C)C(O)C(N3CCC(O)CC3)CC12` (centres undefined) gave a melting point of 248 to 250 °C.

`O=c1[nH]c2ccc(Cl)cc2n1CCCl` returned a melting point of 164 °C.

`CCCCCCc1nc2ccccc2n1Cc1ccc(C(=O)O)cc1`: the melting point fell in the range of 191 to 193 °C.

With `NCCOC(c1ccccc1)(c1ccccc1)c1ccccc1`, the melting point was in the range of 87 to 89 °C.

For `CCC(CC)Oc1cc(C)nc(Nc2c(C)cc(C)cc2C)c1C#N`, the melting point lay in the range of 105 to 107 °C.

Compound `OCCC1CC2CCN1CC2` (centres undefined) returned a melting point of 62 to 64 °C.

In turn, `Cn1c(=O)cc(CC(=O)O)c2cc(C#N)ccc21` returned a melting point of 238 °C.

As for `CS(=O)(=O)Nc1ccc(F)cc1OCCCN1CCC(OC(c2ccccc2)c2ccccc2)CC1`, the melting point fell in the range of 52 to 56 °C.

Take `CCCCOc1nc(N)c2[nH]c(=O)n(CCCCN(Cc3cccc(CC(=O)O)c3)CC(C)(C)CN(C)C)c2n1`: the melting point lay in the range of 189 to 190 °C.

`OC(Cc1ccccc1)c1nc(-c2ccncc2)cs1` (centres undefined) came in with a melting point of 120 to 122 °C.

On to `CCOC(=O)c1cc2cc([N+](=O)[O-])cc(C)c2o1`, for which the melting point was in the range of 125 to 126 °C.

In turn, `Cc1cccc(Cl)c1C=NS` displayed a melting point of 143 °C.

`CC(C)(C)C(F)(F)c1ccc(C[C@@H](NC(=O)c2cccc3c(Cl)cccc23)[C@@H](O)c2cccc(Cl)c2)cc1` (racemic) came in with a melting point of 99 to 101 °C.

In turn, `Cc1cc(-c2nnc3c4ccccc4c(OCc4ncnn4C)nn23)no1` yielded a melting point of 256 to 258 °C.

Take `CCCc1c(C(=O)NCc2ccc(-c3ccc(O)c(Br)c3)cc2)cnn1-c1ccccc1`: the melting point fell in the range of 184 to 186 °C.

`CONC(=O)c1ccc(-c2ccc3nnn(Cc4ccc5ncccc5c4)c3n2)cc1F` displayed a melting point of 197 to 199 °C.

Regarding `COc1ccc(CSc2ccc(S(N)(=O)=O)s2)cc1`, the melting point was 139 to 141 °C.

In turn, `CN1CCOC1=C(C#N)C=C1Nc2ccccc2C1=O` gave a melting point of 222 to 226 °C.

`COc1ccc2c(c1)C1=C(SCC3(CCN(CC(O)COc4ccc(Cl)cc4)CC3)O1)C(=O)C2=O` (centres undefined) came in with a melting point of 109 to 110 °C.

In the case of `COc1cc2c(cc1-c1nc3cc(-c4ccccc4)ccc3o1)oc1ccccc12`, the melting point is 155 to 160 °C.

As for `COc1ccc(S(=O)(=O)C(C(=O)NO)C(C)C)cc1` (centres undefined), the melting point worked out at 220 °C.

In the case of `CC(C)(C)OC(=O)NC(=O)C(N)OCc1ccccc1` (centres undefined), the melting point lay in the range of 115 to 120 °C.

The compound `Nc1ccc(Br)n2nc(SCc3ccccc3)nc12` registered a melting point of 125 to 126 °C.

As for `O=C(Cn1sc2ccccc2c1=O)N1CCN(C(=O)OCc2ccccc2)CC1`, the melting point lay in the range of 138 to 142 °C.

Turning to `COC(=O)CCCc1cc2cc(Cl)ccc2n1S(=O)(=O)c1ccc2c(c1)CCO2`, the melting point was 132 to 137 °C.

In the case of `Cc1nc(NC(=O)NS(=O)(=O)c2ccccc2[N+](=O)[O-])nc2c1CCC2`, the melting point fell in the range of 202 to 205 °C.

`O=C(NO)c1ccc(C(=O)Nc2cccc(Nc3nc(-c4cccnc4)cs3)c2)cc1` registered a melting point of 206 °C.

For `Nc1ccc(-c2n[nH]c3c2Cc2ccccc2-3)cc1`, the melting point is 253 to 254 °C.

As to `Cc1c(NC(=O)CC(C)(C)C)cc2c(c1C)OC(C)(C)C2(O)c1ccccc1` (centres undefined), the melting point fell in the range of 109 to 111 °C.

Compound `Cc1oc(-c2ccc(F)cc2)nc1CO` gave a melting point of 153 to 155 °C.

For the compound `COc1ccc2sc(C(N)=O)c(SCc3ccccc3)c2c1`, the melting point was 151 to 153 °C.

`COC(=O)c1ccc2c(c1)Sc1ccc(C(C)N(O)C(N)=O)cc1CC2` (centres undefined) had a melting point of 167 to 169 °C.

In the case of `Cc1ccc(NC(=O)Nc2cnc3ccc(Cl)cc3c2-c2ccccc2)c(C)c1`, the melting point was in the range of 230 to 231 °C.

In turn, `CCCCCCCCCCCCNC(=S)NCCCCCCCCCCCC` came in with a melting point of 75 to 78 °C.

Regarding `COS(=O)(=O)c1cc(C(C)(C)C)c(O)c(C(C)(C)C)c1`, the melting point lay in the range of 116 to 118 °C.

For `COCCNc1c([N+](=O)[O-])cnn1-c1c(Cl)cc(C(F)(F)F)cc1Cl`, the melting point was in the range of 85 to 90 °C.

The compound `COCC1(O)CCN(c2c(F)cc(N3C[C@H](CO)OC3=O)cc2F)CC1` displayed a melting point of 117 to 119 °C.

Regarding `Cc1cnc(CSc2cc3ccccc3[nH]2)cc1N1CCCCC1`, the melting point was in the range of 138 to 139 °C.

In turn, `O=C(NC(=O)c1c(F)cccc1F)Nc1cc(Cl)c(OC(F)(F)C(F)(F)F)cc1Cl` showed a melting point of 178 to 179 °C.

As to `O=C(Cn1nnc2ccccc21)Nc1ccc(-n2nc(C3CC3)cc2C2CC2)c(F)c1`, the melting point lay in the range of 201 to 203 °C.

As for `CC(C)C(NC(=O)c1ccc(Cl)cc1)NC(=NC#N)Nc1cccnc1` (centres undefined), the melting point is 182 to 184 °C.

With `COc1ccc(C(=O)N2CCc3cc(OCc4ccccc4)c(OC)cc3C2)cc1`, the melting point lay within 126 to 127 °C.

Turning to `COc1[nH]c(C)c(SC(F)(Cl)Cl)c1C#N`, the melting point is 175 °C.

As for `CC1OC(COc2ccc(Cl)cc2)OC1=O` (centres undefined), the melting point was in the range of 53 to 55 °C.

`CCN(CC)c1nc(N)nc(-c2cc(Cl)ccc2Cl)n1` displayed a melting point of 137 to 138 °C.

`CC1(CCS)C(=O)N2CC=CC(C(=O)O)N2C1=O` (centres undefined): the melting point lay in the range of 113 to 114 °C.

`Cc1c(N2CCC(N(C)Cc3ccccc3)C2)c(F)cc2c(=O)c(C(=O)O)cn(C3CC3)c12` (centres undefined) gave a melting point of 161 °C.

`CC(C)Oc1nc(N)nc2c1ncn2C1C=CC(CO)C1` (centres undefined) had a melting point of 188 to 191 °C.

With `N#Cc1c(Cl)cnc2cc(I)sc12`, the melting point lay in the range of 209 to 211 °C.

For `CCCCc1oc2ccccc2c1Cc1cc(Br)c(O[C@H](Cc2ccccc2)C(=O)O)c(Br)c1`, the melting point was 225 to 226 °C.

As for `O=C(O)c1ccc(NCCc2ccc(OCc3ccccc3)cc2)cc1`, the melting point was in the range of 180 to 185 °C.

With `COC(=N[N+](=O)[O-])NCc1ccc(Cl)nc1`, the melting point fell in the range of 112 to 113 °C.

`CC(C)Cn1c(=O)n(C)c(=O)c2c(SC(C)C)c(Cn3cnc4ccccc43)sc21`: the melting point stood at 195 °C.

In the case of `CC(=O)N(C)c1scc(C)c1C(=O)c1ccccc1`, the melting point came to 122 °C.

Compound `CNC(=C(Br)C#N)c1ccc(Cl)cc1` came in with a melting point of 178 °C.

The compound `[O-][N+]1=C(c2ccccc2Cl)c2cc(Cl)ccc2-c2ncncc2C1` came in with a melting point of 216 to 217 °C.

`C#Cc1cc(CC)c(-c2c(O)c(C)nn(C)c2=O)c(CC)c1`: the melting point fell in the range of 216 to 217 °C.

The compound `COc1cc2c(cc1O)/C(=N/OCc1ccc([N+](=O)[O-])cc1)CCC2` registered a melting point of 125 to 127 °C.

`CC(=NNC(=O)c1cccc(C(F)(F)F)c1)c1cccnc1` displayed a melting point of 183 °C.

Regarding `O=C(NCc1ccccc1)NCC(C(=O)O)C(F)(F)F` (centres undefined), the melting point lay within 183 to 184 °C.

Regarding `CN1CCN(c2cc(Cl)cc3c2c(=O)n(-c2ccccc2)c(=O)n3Cc2ccccc2)CC1`, the melting point was 111 to 119 °C.

In turn, `CCOC(=O)c1ccc(Cc2ccccc2)cn1` showed a melting point of 109 to 111 °C.

As for `CC(C)(C)Sc1c(CC(C)(C)C(=O)O)n(Cc2ccc(Cl)cc2)c2ccc(OCc3cscn3)cc12`, the melting point lay within 194 to 195 °C.

Turning to `CCCc1nn(CC)c2c(=O)n(CCOc3cccc(OC(C)(C)C(=O)O)c3)c(C)nc12`, the melting point fell in the range of 147 to 149 °C.
